Columns and labels:
[1] = Corrosion rate by LPR sweep, copper coupons in synthetic water, 50° C., 1 ppm free chlorine after 0.5 hrs (Examples 1 and 2)
Protocol: (§1) One liter samples of synthetic water were each dosed with the compositions in Table 1.
(§2) The apparatus used for the corrosion testing was a Gamry Multiport Corrosion Cell and Gamry Reference 600+potentiostat with multiplexor. Copper coupons (CDA110) were added to the sample cells containing neutral water (pH 7.5), and the cells were dosed with 50 ppm of scale inhibitor (co-polymer and 2-phosphonobutane-1,2,4-yricarboxylic acid) and heated to 50° C. and maintained at this temperature throughout the testing. The cells were continuously stirred at a speed of 350 rpm. A cylindrical working electrode was submerged into the test solutions, and an LPR sweep (linear polarization resistance) was performed every hour for 18 hours. After the 0.5 hrs mark, 1 ppm of free chlorine was dosed into the corrosion cell.
(§3) One liter samples of the synthetic water described above with respect to Example 1 were each dosed with the compositions in Table 5 and processed under conditions similar to Example 1.

[2] = Cl2 demand in the corrosion cell test (Examples 1 and 2); type: physicochemical
Protocol: as §1, §2, §3

CCCCCCCC(=O)NCCN(CCOCC(=O)[O-])CC(=O)[O-].[Na+].[Na+] [DCyADAA, Disodium Capryloamphodiacetate]
CR Average (10-18 hrs) ([1]; 2 ppm): 0.271 mpy | CR Peak ([1]; 2 ppm): 2.854 mpy | corrosion rate ([1]; 2 ppm, 0 hrs): 0.0230 mpy | corrosion rate ([1]; 2 ppm, 1 hrs): 2.8540 mpy | corrosion rate ([1]; 2 ppm, 2 hrs): 1.5850 mpy | corrosion rate ([1]; 2 ppm, 3 hrs): 1.3860 mpy | corrosion rate ([1]; 2 ppm, 4 hrs): 0.5261 mpy | corrosion rate ([1]; 2 ppm, 5 hrs): 0.6207 mpy | corrosion rate ([1]; 2 ppm, 6 hrs): 0.5852 mpy | corrosion rate ([1]; 2 ppm, 7 hrs): 0.4766 mpy | corrosion rate ([1]; 2 ppm, 8 hrs): 0.4185 mpy | corrosion rate ([1]; 2 ppm, 9 hrs): 0.3747 mpy | corrosion rate ([1]; 2 ppm, 10 hrs): 0.3416 mpy | corrosion rate ([1]; 2 ppm, 11 hrs): 0.3181 mpy | corrosion rate ([1]; 2 ppm, 12 hrs): 0.2953 mpy | corrosion rate ([1]; 2 ppm, 13 hrs): 0.2800 mpy | corrosion rate ([1]; 2 ppm, 14 hrs): 0.2681 mpy | corrosion rate ([1]; 2 ppm, 15 hrs): 0.2352 mpy | corrosion rate ([1]; 2 ppm, 16 hrs): 0.2411 mpy | corrosion rate ([1]; 2 ppm, 17 hrs): 0.2394 mpy | corrosion rate ([1]; 2 ppm, 18 hrs): 0.2217 mpy | corrosion inhibition properties over the entire 18 hour period (in words) ([1]; Example 2, 2 ppm): inferior corrosion inhibition properties | corrosion resistance when free chlorine was added (in words) ([1]; Example 2, 2 ppm): substantial deterioration in corrosion resistance | Cl2 Demand ([2]; 2 ppm): 1.1 mg/L

CCCCCCCCCCCC(=O)NCCN(CCOCC(=O)[O-])CC(=O)[O-].[Na+].[Na+] [DLADAA, Disodium Lauroamphodiacetate]
CR Average (10-18 hrs) ([1]; 2 ppm): 0.036 mpy | CR Peak ([1]; 2 ppm): 0.392 mpy | corrosion rate ([1]; 2 ppm, 0 hrs): 0.0175 mpy | corrosion rate ([1]; 2 ppm, 1 hrs): 0.3923 mpy | corrosion rate ([1]; 2 ppm, 2 hrs): 0.3065 mpy | corrosion rate ([1]; 2 ppm, 3 hrs): 0.2159 mpy | corrosion rate ([1]; 2 ppm, 4 hrs): 0.1420 mpy | corrosion rate ([1]; 2 ppm, 5 hrs): 0.1385 mpy | corrosion rate ([1]; 2 ppm, 6 hrs): 0.1059 mpy | corrosion rate ([1]; 2 ppm, 7 hrs): 0.0894 mpy | corrosion rate ([1]; 2 ppm, 8 hrs): 0.0705 mpy | corrosion rate ([1]; 2 ppm, 9 hrs): 0.0631 mpy | corrosion rate ([1]; 2 ppm, 10 hrs): 0.0512 mpy | corrosion rate ([1]; 2 ppm, 11 hrs): 0.0461 mpy | corrosion rate ([1]; 2 ppm, 12 hrs): 0.0419 mpy | corrosion rate ([1]; 2 ppm, 13 hrs): 0.0378 mpy | corrosion rate ([1]; 2 ppm, 14 hrs): 0.0347 mpy | corrosion rate ([1]; 2 ppm, 15 hrs): 0.0304 mpy | corrosion rate ([1]; 2 ppm, 16 hrs): 0.0282 mpy | corrosion rate ([1]; 2 ppm, 17 hrs): 0.0262 mpy | corrosion rate ([1]; 2 ppm, 18 hrs): 0.0242 mpy | corrosion inhibition properties over the entire 18 hour period (in words) ([1]; Example 2, 2 ppm): good corrosion inhibition properties | Cl2 Demand ([2]; 2 ppm): 0.7 mg/L

Disodium Cocoamphodiacetate [DCADAA]
CR Average (10-18 hrs) ([1]; 2 ppm): 0.036 mpy | CR Peak ([1]; 2 ppm): 0.180 mpy | corrosion rate ([1]; 2 ppm, 0 hrs): 0.0198 mpy | corrosion rate ([1]; 2 ppm, 1 hrs): 0.1804 mpy | corrosion rate ([1]; 2 ppm, 2 hrs): 0.1576 mpy | corrosion rate ([1]; 2 ppm, 3 hrs): 0.1608 mpy | corrosion rate ([1]; 2 ppm, 4 hrs): 0.1140 mpy | corrosion rate ([1]; 2 ppm, 5 hrs): 0.1360 mpy | corrosion rate ([1]; 2 ppm, 6 hrs): 0.0910 mpy | corrosion rate ([1]; 2 ppm, 7 hrs): 0.0780 mpy | corrosion rate ([1]; 2 ppm, 8 hrs): 0.0629 mpy | corrosion rate ([1]; 2 ppm, 9 hrs): 0.0545 mpy | corrosion rate ([1]; 2 ppm, 10 hrs): 0.0516 mpy | corrosion rate ([1]; 2 ppm, 11 hrs): 0.0459 mpy | corrosion rate ([1]; 2 ppm, 12 hrs): 0.0419 mpy | corrosion rate ([1]; 2 ppm, 13 hrs): 0.0375 mpy | corrosion rate ([1]; 2 ppm, 14 hrs): 0.0349 mpy | corrosion rate ([1]; 2 ppm, 15 hrs): 0.0316 mpy | corrosion rate ([1]; 2 ppm, 16 hrs): 0.0290 mpy | corrosion rate ([1]; 2 ppm, 17 hrs): 0.0246 mpy | corrosion rate ([1]; 2 ppm, 18 hrs): 0.0252 mpy | corrosion inhibition properties over the entire 18 hour period (in words) ([1]; Example 2, 2 ppm): good corrosion inhibition properties | Cl2 Demand ([2]; 2 ppm): 0.6 mg/L

O=C([O-])C(O)[C@H](O)[C@@H](O)[C@H](O)[C@H](O)CO.[Na+] (stereo partly drawn) [Glucoheptonate, NaGlucoheptonate, reference compound]
CR Average (10-18 hrs) ([1]; 5 ppm): 0.278 mpy | CR Peak ([1]; 5 ppm): 2.670 mpy | corrosion rate ([1]; 5 ppm, 0 hrs): 0.074 mpy | corrosion rate ([1]; 5 ppm, 1 hrs): 2.670 mpy | corrosion rate ([1]; 5 ppm, 2 hrs): 2.004 mpy | corrosion rate ([1]; 5 ppm, 3 hrs): 1.238 mpy | corrosion rate ([1]; 5 ppm, 4 hrs): 0.784 mpy | corrosion rate ([1]; 5 ppm, 5 hrs): 0.536 mpy | corrosion rate ([1]; 5 ppm, 6 hrs): 0.504 mpy | corrosion rate ([1]; 5 ppm, 7 hrs): 0.449 mpy | corrosion rate ([1]; 5 ppm, 8 hrs): 0.357 mpy | corrosion rate ([1]; 5 ppm, 9 hrs): 0.331 mpy | corrosion rate ([1]; 5 ppm, 10 hrs): 0.311 mpy | corrosion rate ([1]; 5 ppm, 11 hrs): 0.297 mpy | corrosion rate ([1]; 5 ppm, 12 hrs): 0.288 mpy | corrosion rate ([1]; 5 ppm, 13 hrs): 0.280 mpy | corrosion rate ([1]; 5 ppm, 14 hrs): 0.274 mpy | corrosion rate ([1]; 5 ppm, 15 hrs): 0.269 mpy | corrosion rate ([1]; 5 ppm, 16 hrs): 0.267 mpy | corrosion rate ([1]; 5 ppm, 17 hrs): 0.260 mpy | corrosion rate ([1]; 5 ppm, 18 hrs): 0.257 mpy | Cl2 Demand ([2]; 5 ppm): 0.5 mg/L

CCCCCCCCCCCCCCCCCCN(C(=O)CC(C(=O)[O-])S(=O)(=O)[O-])C(CC(=O)[O-])C(=O)[O-].[Na+].[Na+].[Na+].[Na+] (stereo not drawn) [TDSS, Tetrasodium Dicarboxyethyl Stearyl Sulfosuccinamate, reference compound]
CR Average (10-18 hrs) ([1]; 7 ppm): 0.141 mpy | CR Peak ([1]; 7 ppm): 0.243 mpy | corrosion rate ([1]; 7 ppm, 0 hrs): 0.0149 mpy | corrosion rate ([1]; 7 ppm, 1 hrs): 0.1875 mpy | corrosion rate ([1]; 7 ppm, 2 hrs): 0.2432 mpy | corrosion rate ([1]; 7 ppm, 3 hrs): 0.2313 mpy | corrosion rate ([1]; 7 ppm, 4 hrs): 0.1839 mpy | corrosion rate ([1]; 7 ppm, 5 hrs): 0.1611 mpy | corrosion rate ([1]; 7 ppm, 6 hrs): 0.1349 mpy | corrosion rate ([1]; 7 ppm, 7 hrs): 0.1387 mpy | corrosion rate ([1]; 7 ppm, 8 hrs): 0.1304 mpy | corrosion rate ([1]; 7 ppm, 9 hrs): 0.1291 mpy | corrosion rate ([1]; 7 ppm, 10 hrs): 0.1381 mpy | corrosion rate ([1]; 7 ppm, 11 hrs): 0.1431 mpy | corrosion rate ([1]; 7 ppm, 12 hrs): 0.1363 mpy | corrosion rate ([1]; 7 ppm, 13 hrs): 0.1485 mpy | corrosion rate ([1]; 7 ppm, 14 hrs): 0.1371 mpy | corrosion rate ([1]; 7 ppm, 15 hrs): 0.1428 mpy | corrosion rate ([1]; 7 ppm, 16 hrs): 0.1422 mpy | corrosion rate ([1]; 7 ppm, 17 hrs): 0.1375 mpy | corrosion rate ([1]; 7 ppm, 18 hrs): 0.1422 mpy | Cl2 Demand ([2]; 7 ppm): 0.8 mg/L

Sodium Cocoamphoacetate [SCAA]
CR Average (10-18 hrs) ([1]; 2 ppm): 0.017 mpy | CR Peak ([1]; 2 ppm): 0.197 mpy | corrosion rate ([1]; 2 ppm, 0 hrs): 0.0217 mpy | corrosion rate ([1]; 2 ppm, 1 hrs): 0.1969 mpy | corrosion rate ([1]; 2 ppm, 2 hrs): 0.0988 mpy | corrosion rate ([1]; 2 ppm, 3 hrs): 0.0761 mpy | corrosion rate ([1]; 2 ppm, 4 hrs): 0.0602 mpy | corrosion rate ([1]; 2 ppm, 5 hrs): 0.0506 mpy | corrosion rate ([1]; 2 ppm, 6 hrs): 0.0473 mpy | corrosion rate ([1]; 2 ppm, 7 hrs): 0.0347 mpy | corrosion rate ([1]; 2 ppm, 8 hrs): 0.0293 mpy | corrosion rate ([1]; 2 ppm, 9 hrs): 0.0257 mpy | corrosion rate ([1]; 2 ppm, 10 hrs): 0.0231 mpy | corrosion rate ([1]; 2 ppm, 11 hrs): 0.0212 mpy | corrosion rate ([1]; 2 ppm, 12 hrs): 0.0191 mpy | corrosion rate ([1]; 2 ppm, 13 hrs): 0.0177 mpy | corrosion rate ([1]; 2 ppm, 14 hrs): 0.0166 mpy | corrosion rate ([1]; 2 ppm, 15 hrs): 0.0156 mpy | corrosion rate ([1]; 2 ppm, 16 hrs): 0.0142 mpy | corrosion rate ([1]; 2 ppm, 17 hrs): 0.0139 mpy | corrosion rate ([1]; 2 ppm, 18 hrs): 0.0128 mpy | corrosion inhibition properties over the entire 18 hour period (in words) ([1]; Example 2, 2 ppm): good corrosion inhibition properties | Cl2 Demand ([2]; 2 ppm): 1.0 mg/L

Disodium Coco Imidazoline Dicarboxylate [DCIMDCC]
CR Average (10-18 hrs) ([1]; 2 ppm): 0.025 mpy | CR Peak ([1]; 2 ppm): 0.267 mpy | corrosion rate ([1]; 2 ppm, 0 hrs): 0.0395 mpy | corrosion rate ([1]; 2 ppm, 1 hrs): 0.2665 mpy | corrosion rate ([1]; 2 ppm, 2 hrs): 0.1537 mpy | corrosion rate ([1]; 2 ppm, 3 hrs): 0.0908 mpy | corrosion rate ([1]; 2 ppm, 4 hrs): 0.0856 mpy | corrosion rate ([1]; 2 ppm, 5 hrs): 0.0744 mpy | corrosion rate ([1]; 2 ppm, 6 hrs): 0.0600 mpy | corrosion rate ([1]; 2 ppm, 7 hrs): 0.0499 mpy | corrosion rate ([1]; 2 ppm, 8 hrs): 0.0409 mpy | corrosion rate ([1]; 2 ppm, 9 hrs): 0.0375 mpy | corrosion rate ([1]; 2 ppm, 10 hrs): 0.0339 mpy | corrosion rate ([1]; 2 ppm, 11 hrs): 0.0313 mpy | corrosion rate ([1]; 2 ppm, 12 hrs): 0.0283 mpy | corrosion rate ([1]; 2 ppm, 13 hrs): 0.0266 mpy | corrosion rate ([1]; 2 ppm, 14 hrs): 0.0243 mpy | corrosion rate ([1]; 2 ppm, 15 hrs): 0.0224 mpy | corrosion rate ([1]; 2 ppm, 16 hrs): 0.0209 mpy | corrosion rate ([1]; 2 ppm, 17 hrs): 0.0196 mpy | corrosion rate ([1]; 2 ppm, 18 hrs): 0.0188 mpy | Cl2 Demand ([2]; 2 ppm): 0.9 mg/L
